Data taken from patent US8211894B2, “Heteroarylalkyl-8-azabicyclo[3.2.1]octane compounds as mu opioid receptor antagonists” (Theravance, Inc., priority 2007, dated 2012).
Read-outs that look alike come from different tables or passages of the source.

Assays:
[1] = biological target: T1, human mu opioid receptor (Homo sapiens, UniProt P35372); test: Radioligand binding assay, human mu opioid receptor ([3H]-Diprenorphine displacement)
T1 construct: host or cells: CHO-K1

[2] = biological target: T1, human mu opioid receptor; test: Human mu GTP-Eu nucleotide exchange assay (agonist mediated activation, CHO-K1 membranes); type: biochemical; settings: bound GTP-Eu relative to DAMGO (IA=100); read-out: intrinsic activity (IA), expressed as a percentage
[3] = system: loperamide-induced delayed gastric emptying; test: Rat gastric emptying assay (reversal of loperamide-induced delayed gastric emptying); type: in vivo; settings: administered orally, loperamide 1 mg/kg s.c., gastric emptying model
Protocol: Assay 3: Rat Model of In Vivo Efficacy In this assay the efficacy of test compounds was evaluated in a model of gastrointestinal transit, which evaluates peripheral activity. This study was approved by the Institutional Animal Care and Use Committee at […]. and conformed to the Guide for the Care and Use of Laboratory Animals published by the National Academy of Sciences (©1996). a. Rat Gastric Emptying Assay Test compounds were evaluated in the rat gastric emptying assay to determine their ability to reverse loperamide-induced delayed gastric emptying. […] The administration of test compound was followed by subcutaneous administration of loperamide at a dose of 1 mg/kg or vehicle. Five minutes post loperamide or vehicle administration, a non-nutritive, non-absorbable charcoal meal was administered via oral gavage and animals were allowed free access to water for the sixty minute duration of the experiment. […] Gastric weight was then determined after removal of the ligatures. b. Data Analysis and Results Data was analyzed using the GraphPad Prism Software package (GraphPad Software, Inc., San Diego, Calif.). Percent reversal curves were constructed by non-linear regression analysis using the sigmoidal dose response (variable slope) model and best-fit ID50 values were calculated. […]

[4] = [3H]-Diprenorphine 0.5 nM, CHO-K1 membranes, read-out: pKi at the human mu opioid receptor (converted)

T1 sequence (P35372 whole entry): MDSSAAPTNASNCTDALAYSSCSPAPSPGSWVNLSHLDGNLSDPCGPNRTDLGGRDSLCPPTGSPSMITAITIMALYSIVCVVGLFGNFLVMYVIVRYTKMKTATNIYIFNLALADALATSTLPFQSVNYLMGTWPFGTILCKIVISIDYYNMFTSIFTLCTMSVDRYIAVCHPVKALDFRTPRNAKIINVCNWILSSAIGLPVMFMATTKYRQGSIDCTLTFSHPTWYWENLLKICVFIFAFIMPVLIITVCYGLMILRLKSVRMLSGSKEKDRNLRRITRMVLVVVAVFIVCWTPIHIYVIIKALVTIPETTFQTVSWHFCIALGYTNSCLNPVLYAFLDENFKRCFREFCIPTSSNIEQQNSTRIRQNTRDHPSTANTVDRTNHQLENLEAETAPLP

SMILES: NC(=O)c1cccc([C@H]2C[C@H]3CC[C@@H](C2)N3Cc2cn(C3CCCCC3)nn2)c1 [Example 1, 3-endo-[8-(1-Cyclohexyl-1H-[1,2,3]-triazol-4-ylmethyl)-8-azabicyclo[3.2.1]oct-3-yl]benzamide]
- Ki [1]: 0.0501 nM
- Emax [2]: -4%
- ID50, dose required for 50% reversal of the effects of loperamide [3]: 0.13 mg/kg

SMILES: NC(=O)c1cccc([C@H]2C[C@H]3CC[C@@H](C2)N3Cc2cn(C3CCC(F)(F)CC3)nn2)c1 [Example 4, 3-endo-{8-[1-(4,4-Difluorocyclohexyl)-1H-1,2,3-triazol-4-ylmethyl]-8-azabicyclo[3.2.1]oct-3-yl}benzamide]
- Ki [1]: 0.1 nM
- Emax [2]: 0%
- ID50, dose required for 50% reversal of the effects of loperamide [3]: 0.25 mg/kg

SMILES: CCCc1cn(CCN2[C@@H]3CC[C@H]2C[C@@H](c2cccc(C(N)=O)c2)C3)nn1 [Example 8, 3-endo-{8-[2-(4-Propyl-[1,2,3]-triazol-1-yl)-ethyl]-8-aza-bicyclo[3.2.1]oct-3-yl}benzamide]
- Ki [1, 4]: 0.0794 nM
- Emax [2]: -4%

SMILES: NC(=O)c1cccc([C@H]2C[C@H]3CC[C@@H](C2)N3CCCn2cc(-c3ccc(F)cc3F)nn2)c1 [Example 9, 3-endo-(8-{3-[4-(2,4-Difluorophenyl)-[1,2,3]-triazol-1-yl]-propyl}-8-azabicyclo[3.2.1]oct-3-yl)benzamide]
- Ki [1, 4]: 0.0501 nM
- Emax [2]: -1%

SMILES: NC(=O)c1cccc([C@H]2C[C@H]3CC[C@@H](C2)N3Cc2cncn2Cc2ccccc2)c1 [Example 11, 3-endo-[8-(3-Benzyl-1H-imidazol-4-ylmethyl)-8-aza-bicyclo[3.2.1]oct-3-yl]-benzamide]
- Ki [1, 4]: 0.631 nM
- Emax [2]: 6%

SMILES: CC(C)Cc1nc(CCCN2[C@@H]3CC[C@H]2C[C@@H](c2cccc(C(N)=O)c2)C3)no1 [Example 14, 3-endo-{8-[3-(5-Isobutyl-1,2,4-oxadiazol-3-yl)-propyl]-8-aza-bicyclo[3.2.1]oct-3-yl}benzamide]
- Ki [1, 4]: 1.58 nM
- Emax [2]: -11%
